According to PubChem BioAssay AID2060505 (Molecular Pharmacology Branch, DTP, NCI, 2025):
Values belong to the compound of their own block, whether it stands above or below them.

Tested on: 633275-114-R-J1-PDC complex spheroids, viability
Assay: Anticancer human tumor 633275-114-R-J1-PDC patient-derived endometrial adenocarcinoma cell line growth inhibition [GQUAD]
Details: for IC50: curve of first compound; for viability, T/C: stronger effect = lower value
How it was run: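 Viability of tumor cells grown as complex spheroids with endothelial and stromal cells, exposed to drug combinations. Top concentration at or near clinical Cmax (else 10 microM), diluted in half-log increments.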

[1] = second compound 0.0316 µM, first compound 0.0316 µM
[2] = second compound 0.0316 µM, first compound 0.1 µM
[3] = second compound 0.0316 µM, first compound 0.316 µM
[4] = second compound 0.0316 µM, first compound 1 µM
[5] = second compound 0.0316 µM, first compound 3.16 µM
[6] = second compound 0.0316 µM, first compound 10 µM
[7] = second compound 0.1 µM, first compound 0.0316 µM
[8] = second compound 0.1 µM, first compound 0.1 µM
[9] = second compound 0.1 µM, first compound 0.316 µM
[10] = second compound 0.1 µM, first compound 1 µM
[11] = second compound 0.1 µM, first compound 3.16 µM
[12] = second compound 0.1 µM, first compound 10 µM
[13] = second compound 0.316 µM, first compound 0.0316 µM
[14] = second compound 0.316 µM, first compound 0.1 µM
[15] = second compound 0.316 µM, first compound 0.316 µM
[16] = second compound 0.316 µM, first compound 1 µM
[17] = second compound 0.316 µM, first compound 3.16 µM
[18] = second compound 0.316 µM, first compound 10 µM
[19] = second compound 1 µM, first compound 0.0316 µM
[20] = second compound 1 µM, first compound 0.1 µM
[21] = second compound 1 µM, first compound 0.316 µM
[22] = second compound 1 µM, first compound 1 µM
[23] = second compound 1 µM, first compound 3.16 µM
[24] = second compound 1 µM, first compound 10 µM
[25] = second compound 3.16 µM, first compound 0.0316 µM
[26] = second compound 3.16 µM, first compound 0.1 µM
[27] = second compound 3.16 µM, first compound 0.316 µM
[28] = second compound 3.16 µM, first compound 1 µM
[29] = second compound 3.16 µM, first compound 3.16 µM
[30] = second compound 3.16 µM, first compound 10 µM
[31] = second compound 10 µM, first compound 0.0316 µM
[32] = second compound 10 µM, first compound 0.1 µM
[33] = second compound 10 µM, first compound 0.316 µM
[34] = second compound 10 µM, first compound 1 µM
[35] = second compound 10 µM, first compound 3.16 µM
[36] = second compound 10 µM, first compound 10 µM
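Also: spheroids exposed to the agents for seven days.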
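For viability, T/C in this document: percent of DMSO vehicle control viability which is 100%.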

IC50 (second compound 0.0316 µM): 185 nM
IC50 (second compound 0.1 µM): 86.6 nM
IC50 (second compound 0.316 µM): < 31.6 nM
IC50 (second compound 1 µM): < 31.6 nM
IC50 (second compound 3.16 µM): < 31.6 nM
IC50 (second compound 10 µM): < 31.6 nM
Compound: COc1cc(C2c3cc4c(cc3C(OC3OC5COC(C)OC5C(O)C3O)C3COC(=O)C23)OCO4)cc(OC)c1O (stereo unspecified) + Cc1cnc(CNC(=O)c2c(=O)c3ccc(N4CCCN(C)CC4)nc3n3c2sc2ccccc23)cn1
viability, T/C [1]: 53.3%
viability, T/C [2]: 55.2%
viability, T/C [3]: 47.4%
viability, T/C [4]: 41.3%
viability, T/C [5]: 36.6%
viability, T/C [6]: 27.8%
viability, T/C [7]: 54.4%
viability, T/C [8]: 45.2%
viability, T/C [9]: 50.1%
viability, T/C [10]: 40%
viability, T/C [11]: 31.8%
viability, T/C [12]: 29.4%
viability, T/C [13]: 43.4%
viability, T/C [14]: 45.8%
viability, T/C [15]: 43.6%
viability, T/C [16]: 41.4%
viability, T/C [17]: 31.9%
viability, T/C [18]: 28.1%
viability, T/C [19]: 40.9%
viability, T/C [20]: 41%
viability, T/C [21]: 43.5%
viability, T/C [22]: 41%
viability, T/C [23]: 34.1%
viability, T/C [24]: 28.4%
viability, T/C [25]: 31.7%
viability, T/C [26]: 32.9%
viability, T/C [27]: 35.9%
viability, T/C [28]: 32.7%
viability, T/C [29]: 34.2%
viability, T/C [30]: 25.5%
viability, T/C [31]: 28.2%
viability, T/C [32]: 31.4%
viability, T/C [33]: 28.7%
viability, T/C [34]: 32.9%
viability, T/C [35]: 27.2%
viability, T/C [36]: 20.9%

IC50 (second compound 0.0316 µM): 13 nM
IC50 (second compound 0.1 µM): 3.49 nM
IC50 (second compound 0.316 µM): < 0.999 nM
IC50 (second compound 1 µM): < 0.999 nM
IC50 (second compound 3.16 µM): < 0.999 nM
IC50 (second compound 10 µM): < 0.999 nM
Compound: Cc1[nH]c2ccccc2c1CCNCc1ccc(/C=C/C(=O)NO)cc1 + Cc1cnc(CNC(=O)c2c(=O)c3ccc(N4CCCN(C)CC4)nc3n3c2sc2ccccc23)cn1
viability, T/C (second compound 0.0316 µM, first compound 0.000999 µM): 65.8%
viability, T/C (second compound 0.0316 µM, first compound 0.00316 µM): 59.5%
viability, T/C (second compound 0.0316 µM, first compound 0.00999 µM): 52.6%
viability, T/C [1]: 41.3%
viability, T/C (second compound 0.0316 µM, first compound 0.0999 µM): 32%
viability, T/C [3]: 16.2%
viability, T/C (second compound 0.1 µM, first compound 0.000999 µM): 56.1%
viability, T/C (second compound 0.1 µM, first compound 0.00316 µM): 48%
viability, T/C (second compound 0.1 µM, first compound 0.00999 µM): 45.2%
viability, T/C [7]: 38%
viability, T/C (second compound 0.1 µM, first compound 0.0999 µM): 25.4%
viability, T/C [9]: 15.1%
viability, T/C (second compound 0.316 µM, first compound 0.000999 µM): 50.4%
viability, T/C (second compound 0.316 µM, first compound 0.00316 µM): 40.7%
viability, T/C (second compound 0.316 µM, first compound 0.00999 µM): 37.5%
viability, T/C [13]: 30.9%
viability, T/C (second compound 0.316 µM, first compound 0.0999 µM): 21.7%
viability, T/C [15]: 9.86%
viability, T/C (second compound 1 µM, first compound 0.000999 µM): 44.3%
viability, T/C (second compound 1 µM, first compound 0.00316 µM): 38.2%
viability, T/C (second compound 1 µM, first compound 0.00999 µM): 34.8%
viability, T/C [19]: 33.1%
viability, T/C (second compound 1 µM, first compound 0.0999 µM): 21.4%
viability, T/C [21]: 8.16%
viability, T/C (second compound 3.16 µM, first compound 0.000999 µM): 38.3%
viability, T/C (second compound 3.16 µM, first compound 0.00316 µM): 32.1%
viability, T/C (second compound 3.16 µM, first compound 0.00999 µM): 31.9%
viability, T/C [25]: 27.7%
viability, T/C (second compound 3.16 µM, first compound 0.0999 µM): 16.6%
viability, T/C [27]: 0.13%
viability, T/C (second compound 10 µM, first compound 0.000999 µM): 27.3%
viability, T/C (second compound 10 µM, first compound 0.00316 µM): 31.2%
viability, T/C (second compound 10 µM, first compound 0.00999 µM): 27.7%
viability, T/C [31]: 24.8%
viability, T/C (second compound 10 µM, first compound 0.0999 µM): 16.5%
viability, T/C [33]: 0.21%

IC50 (second compound 0.0316 µM): < 31.6 nM
IC50 (second compound 0.1 µM): < 31.6 nM
IC50 (second compound 0.316 µM): < 31.6 nM
IC50 (second compound 1 µM): < 31.6 nM
IC50 (second compound 3.16 µM): < 31.6 nM
IC50 (second compound 10 µM): < 31.6 nM
Compound: Nc1ccn(C2OC(CO)C(O)C2(F)F)c(=O)n1 (stereo unspecified) + Cc1cnc(CNC(=O)c2c(=O)c3ccc(N4CCCN(C)CC4)nc3n3c2sc2ccccc23)cn1
viability, T/C [1]: 26.8%
viability, T/C [2]: 22.2%
viability, T/C [3]: 21.5%
viability, T/C [4]: 21.3%
viability, T/C [5]: 20.6%
viability, T/C [6]: 19.9%
viability, T/C [7]: 27.8%
viability, T/C [8]: 23.1%
viability, T/C [9]: 22.4%
viability, T/C [10]: 19.9%
viability, T/C [11]: 24.2%
viability, T/C [12]: 19.5%
viability, T/C [13]: 24.7%
viability, T/C [14]: 25.8%
viability, T/C [15]: 22.4%
viability, T/C [16]: 22.9%
viability, T/C [17]: 21.9%
viability, T/C [18]: 19.5%
viability, T/C [19]: 25.5%
viability, T/C [20]: 23.8%
viability, T/C [21]: 22.7%
viability, T/C [22]: 24%
viability, T/C [23]: 23%
viability, T/C [24]: 19.4%
viability, T/C [25]: 25.7%
viability, T/C [26]: 23.6%
viability, T/C [27]: 21.7%
viability, T/C [28]: 22%
viability, T/C [29]: 21.5%
viability, T/C [30]: 20.9%
viability, T/C [31]: 26.6%
viability, T/C [32]: 22.3%
viability, T/C [33]: 22.6%
viability, T/C [34]: 23.3%
viability, T/C [35]: 20.7%
viability, T/C [36]: 17.9%
